Assay results published in patent publication US8324227B2, “Thieno[2,3-D]-pyrimidin-4(3H)-one compounds with antifungal properties and process thereof” (FDC Limited, priority 2008, dated 2012).
In brackets after ≈: the same amount, converted by molar mass.

Tests used:
Experiment in all cases: Antifungal susceptibility, MIC by broth macro-dilution method
[1] = tested on: C. albicans (ATCC 24433); assay type: cell-based, Candida albicans; conditions: end points after 48 hours, NI till x = no inhibition up to x; for MIC: Candida albicans, ATCC24433, RPMI 1640 medium with MOPS buffer, read-out: MIC against fungi, C. albicans (ATCC 24433); for MIC against fungi, C. albicans (ATCC 24433): RPMI 1640 medium with MOPS buffer
Experimental: (§1) In vitro evaluation of antifungal activity was performed by determining the minimum inhibitory concentration (MIC). Anti-fungal susceptibility testing of these anti-fungal compounds was done by broth dilution method using RPMI 1640 medium with MOPS buffer. Known anti-fungal agents like fluconazole and amphotericin-B were used as positive control. End points were determined after 48 hours visually and by using spectrophotometer wherever necessary. Different dilutions were, tried and various sets of experiments performed.

[2] = tested on: A. niger (ATCC 16404); assay type: cell-based, Aspergillus niger; conditions: end points after 48 hours, NI till x = no inhibition up to x; for MIC: Aspergillus niger, ATCC16404, RPMI 1640 medium with MOPS buffer, read-out: MIC against fungi, A. niger (ATCC 16404); for MIC against fungi, A. niger (ATCC 16404): RPMI 1640 medium with MOPS buffer
Experimental: as §1

[3] = tested on: F. proliferatum (ATCC 10052); assay type: cell-based, Fusarium proliferatum; conditions: end points after 48 hours, NI till x = no inhibition up to x; for MIC: Fusarium proliferatum, ATCC10052, RPMI 1640 medium with MOPS buffer, read-out: MIC against fungi, F. proliferatum (ATCC 10052); for MIC against fungi, F. proliferatum (ATCC 10052): RPMI 1640 medium with MOPS buffer
Experimental: as §1

SMILES | MIC [1] [µg/mL] | MIC [2] [µg/mL] | MIC [3] [µg/mL] | MIC against fungi, C. albicans (ATCC 24433) [1] | MIC against fungi, A. niger (ATCC 16404) [2] | MIC against fungi, F. proliferatum (ATCC 10052) [3]
CCCCc1c(CCC)sc2ncn(CC(O)(Cn3cncn3)c3ccc(F)cc3F)c(=O)c12 (stereo not drawn) [Compound 1-A05, 5-n-Butyl-3-[2-(2,4-difluorophenyl)-2-hydroxy-3-[1,2,4]-triazol-1-yl-propyl]-6-n-propyl-thieno[2,3-d]pyrimidin-4(3H)-one] | 2 to 4 (≈ 4.1 to 8.2 µM) | > 4 | > 4 | – | – | –
CC(=O)OCCCCCCCc1cc2c(=O)n(CC(O)(Cn3cncn3)c3ccc(F)cc3F)cnc2s1 (stereo not drawn) [Compound 1-A12, 6-(7-Acetoxyheptyl)-3-[2-(2,4-difluorophenyl)-2-hydroxy-3-[1,2,4]-triazol-1-ylpropyl]-thieno[2,3-d]pyrimidin-4(3H)-one] | 0.12 to 0.25 (≈ 0.22 to 0.458 µM) | > 2 | > 2 | – | – | –
Cc1c(Cc2ccccc2)sc2ncn(CC(O)(Cn3cncn3)c3ccc(F)cc3F)c(=O)c12 (stereo not drawn) [Compound 1-A15, 6-Benzyl-3-[2-(2,4-difluorophenyl)-2-hydroxy-3-[1,2,4]-triazol-1-yl-propyl]-5-methyl-thieno[2,3-d]pyrimidin-4(3H)-one] | 1 to 2 (≈ 2.03 to 4.05 µM) | > 4 | > 4 | – | – | –
O=c1c2cc(CCCCCCCO)sc2ncn1CC(O)(Cn1cncn1)c1ccc(F)cc1F (stereo not drawn) [Compound 1-A13, 3-[2-(2,4-Difluorophenyl)-2-hydroxy-3-[1,2,4]triazol-1-yl-propyl]-6-(7-hydroxyheptyl)-thieno[2,3-d]pyrimidin-4(3H)-one] | 0.12 to 0.25 (≈ 0.238 to 0.496 µM) | > 16 | > 16 | – | – | –
O=c1c2c3c(sc2ncn1CC(O)(Cn1cncn1)c1ccc(F)cc1F)CCCC3 (stereo not drawn) [Compound 1-A09, 3-[2-(2,4-Difluorophenyl)-2-hydroxy-3-[1,2,4]-triazol-1-yl-propyl]-5,6,7,8-tetrahydrobenzothieno[2,3-d]pyrimidin-4(3H)-one] | 0.25 to 0.5 (≈ 0.564 to 1.13 µM) | > 8 | > 8 | – | – | –
CC(=O)OCCCc1cc2c(=O)n(CC(O)(Cn3cncn3)c3ccc(F)cc3F)cnc2s1 (stereo not drawn) [Compound 1-A26, 3-[2-(2,4-Difluorophenyl)-2-hydroxy-3-[1,2,4]-triazol-1-yl-propyl]-6-(3-acetoxypropyl)-thieno[2,3-d]pyrimidin-4(3H)-one] | 1 to 2 (≈ 2.04 to 4.09 µM) | > 64 | > 64 | – | – | –
CCCCCc1c(C)sc2ncn(CC(O)(Cn3cncn3)c3ccc(F)cc3F)c(=O)c12 (stereo not drawn) [Compound 1-A08, 3-[2-(2,4-Difluorophenyl)-2-hydroxy-3-[1,2,4]triazol-1-yl-propyl]-6-methyl-5-npentyl-thieno[2,3-d]pyrimidin-4(3H)-one] | – | – | – | 2 to 4 µg/mL | NI till 4 μg/ml | NI till 4 μg/ml
O=c1c2cc(CCCOCc3ccccc3)sc2ncn1CC(O)(Cn1cncn1)c1ccc(F)cc1F (stereo not drawn) [Compound 1-A02, 6-(3-Benzyloxypropyl)-3-[2-(2,4-difluorophenyl)-2-hydroxy-3-[1,2,4]-triazol-1-ylpropyl]-thieno[2,3-d]pyrimidin-4(3H)-one] | 0.06 to 0.12 (≈ 0.112 to 0.223 µM) | > 4 | > 4 | – | – | –
CCCCCc1sc2ncn(CC(O)(Cn3cncn3)c3ccc(F)cc3F)c(=O)c2c1C (stereo not drawn) [Compound 1-A11, 3-[2-(2,4-Difluorophenyl)-2-hydroxy-3-[1,2,4]triazol-1-yl-propyl]-5-methyl-6-npentyl-thieno[2,3-d]pyrimidin-4(3H)-one] | – | – | – | 1 to 2 µg/mL | NI till 2 μg/ml | NI till 2 μg/ml
O=c1c2cc(CCCCOCc3ccccc3)sc2ncn1CC(O)(Cn1cncn1)c1ccc(F)cc1F (stereo not drawn) [Compound 1-A01, 6-(4-Benzyloxybutyl)-3-[2-(2,4-difluorophenyl)-2-hydroxy-3-[1,2,4]triazol-1-ylpropyl]-thieno[2,3-d]pyrimidin-4(3H)-one] | 0.06 to 0.12 (≈ 0.109 to 0.218 µM) | > 4 | > 4 | – | – | –
CCCCCCc1sc2ncn(CC(O)(Cn3cncn3)c3ccc(F)cc3F)c(=O)c2c1C (stereo not drawn) [Compound 1-A10, 3-[2-(2,4-Difluorophenyl)-2-hydroxy-3-[1,2,4]-triazol-1-yl-propyl]-6-n-hexyl-5-methyl-thieno[2,3-d]pyrimidin-4(3H)-one] | 1 to 2 (≈ 2.05 to 4.1 µM) | > 2 | > 2 | – | – | –
CCCCCCc1cc2c(=O)n(CC(O)(Cn3cncn3)c3ccc(F)cc3F)cnc2s1 (stereo not drawn) [Compound 1-A03, 3-[2-(2,4-Difluorophenyl)-2-hydroxy-3-[1,2,4]-triazol-1-yl-propyl]-6-(n-hexyl)-thieno[2,3-d]pyrimidin-4(3H)-one] | 0.03 to 0.06 (≈ 0.0634 to 0.127 µM) | > 2 | > 2 | – | – | –
CCCCCCCc1cc2c(=O)n(CC(O)(Cn3cncn3)c3ccc(F)cc3F)cnc2s1 (stereo not drawn) [Compound 1-A06, 3-[2-(2,4-Difluorophenyl)-2-hydroxy-3-[1,2,4]-triazol-1-yl-propyl]-6-n-heptylthieno[2,3-d]pyrimidin-4(3H)-one] | 0.06 to 0.12 (≈ 0.123 to 0.246 µM) | > 2 | > 2 | – | – | –
CCCCCc1cc2c(=O)n(CC(O)(Cn3cncn3)c3ccc(F)cc3F)cnc2s1 (stereo not drawn) [Compound 1-A04, 3-[2-(2,4-Difluorophenyl)-2-hydroxy-3-[1,2,4]-triazol-1-yl-propyl]-6-n-pentylthieno[2,3-d]pyrimidin-4(3H)-one] | 0.03 to 0.06 (≈ 0.0653 to 0.131 µM) | > 4 | > 4 | – | – | –
O=c1c2c(CCc3ccccc3)csc2ncn1CC(O)(Cn1cncn1)c1ccc(F)cc1F (stereo not drawn) [Compound 1-A14, 3-[2-(2,4-Difluorophenyl)-2-hydroxy-3-[1,2,4]triazol-1-yl-propyl]-5(2-phenylethyl)-thieno[2,3-d]pyrimidin-4(3H)-one] | 0.5 to 1 (≈ 1.01 to 2.03 µM) | > 2 | > 2 | – | – | –
CCCCCCCCCCc1cc2c(=O)n(CC(O)(Cn3cncn3)c3ccc(F)cc3F)cnc2s1 (stereo not drawn) [Compound 1-A16, 6-n-Decyl-3-[2-(2,4-difluorophenyl)-2-hydroxy-3-[1,2,4]triazol-1-yl-propyl]thieno[2,3-d]pyrimidin-4(3H)-one] | 1 to 2 (≈ 1.89 to 3.78 µM) | > 2 | > 2 | – | – | –

Second part, the compound after the results:

MIC [1] [µg/mL] | MIC [2] [µg/mL] | MIC [3] [µg/mL] | MIC against fungi, C. albicans (ATCC 24433) [1] | MIC against fungi, A. niger (ATCC 16404) [2] | MIC against fungi, F. proliferatum (ATCC 10052) [3] | SMILES
0.06 to 0.12 (≈ 0.144 to 0.287 µM) | > 16 | > 16 | – | – | – | CCc1cc2c(=O)n(CC(O)(Cn3cncn3)c3ccc(F)cc3F)cnc2s1 (stereo not drawn) [Compound 1-A22, 3-[2-(2,4-Difluorophenyl)-2-hydroxy-3-[1,2,4]triazol-1-yl-propyl]-6-ethylthieno[2,3-d]pyrimidin-4(3H)-one]
2 to 4 (≈ 4.47 to 8.94 µM) | > 128 | > 128 | – | – | – | O=c1c2cc(CCCO)sc2ncn1CC(O)(Cn1cncn1)c1ccc(F)cc1F (stereo not drawn) [Compound 1-A27, 3-[2-(2,4-Difluorophenyl)-2-hydroxy-3-[1,2,4]-triazol-1-yl-propyl]-6-(3-hydroxypropyl)-thieno[2,3-d]pyrimidin-4(3H)-one]
0.06 to 0.12 (≈ 0.139 to 0.278 µM) | > 32 | > 32 | – | – | – | CCCc1cc2c(=O)n(CC(O)(Cn3cncn3)c3ccc(F)cc3F)cnc2s1 (stereo not drawn) [Compound 1-A18, 3-[2-(2,4-Difluorophenyl)-2-hydroxy-3-[1,2,4]-triazol-1-yl-propyl]-6-(n-propyl)-thieno[2,3-d]pyrimidin-4(3H)-one]
1 to 2 (≈ 2.17 to 4.33 µM) | > 64 | > 64 | – | – | – | O=c1c2cc(CCCCO)sc2ncn1CC(O)(Cn1cncn1)c1ccc(F)cc1F (stereo not drawn) [Compound 1-A23, 3-[2-(2,4-Difluorophenyl)-2-hydroxy-3-[1,2,4]-triazol-1-yl-propyl]-6-(4-hydroxybutyl)-thieno[2,3-d]pyrimidin-4(3H)-one]
0.25 to 0.5 (≈ 0.485 to 0.97 µM) | > 4 | > 4 | – | – | – | CCCCCCCCCc1cc2c(=O)n(CC(O)(Cn3cncn3)c3ccc(F)cc3F)cnc2s1 (stereo not drawn) [Compound 1-A17, 3-[2-(2,4-Difluorophenyl)-2-hydroxy-3-[1,2,4]-triazol-1-yl-propyl]-6-n-nonylthieno[2,3-d]pyrimidin-4(3H)-one]
4 to 8 (≈ 7.71 to 15.4 µM) | > 8 | > 8 | – | – | – | NCC(=O)OCCCCc1cc2c(=O)n(CC(O)(Cn3cncn3)c3ccc(F)cc3F)cnc2s1 (stereo not drawn) [Compound 1-A25, 3-[2-(2,4-Difluorophenyl)-2-hydroxy-3-[1,2,4]-triazol-1-yl-propyl]-6-(4-aminoacetyloxybutyl)-thieno[2,3-d]pyrimidin-4(3H)-one]
0.25 to 0.5 (≈ 0.62 to 1.24 µM) | > 64 | > 64 | – | – | – | Cc1cc2c(=O)n(CC(O)(Cn3cncn3)c3ccc(F)cc3F)cnc2s1 (stereo not drawn) [Compound 1-A28, 3-[2-(2,4-Difluorophenyl)-2-hydroxy-3-[1,2,4]-triazol-1-yl-propyl]-6-methylthieno[2,3-d]pyrimidin-4(3H)-one]
– | – | – | 0.5 to 1 µg/mL | NI till 16 μg/ml | NI till 16 μg/ml | CC(C)(C)OC(=O)NCC(=O)OCCCCc1cc2c(=O)n(CC(O)(Cn3cncn3)c3ccc(F)cc3F)cnc2s1 (stereo not drawn) [Compound 1-A24, 3-[2-(2,4-Difluorophenyl)-2-hydroxy-3-[1,2,4]triazol-1-yl-propyl]-6-(4-N-Bocaminoacetyloxybutyl)-thieno[2,3-d]pyrimidin-4(3H)-one]
– | – | – | NI till 2 μg/ml | NI till 2 μg/ml | NI till 2 μg/ml | O=c1c2c3c(sc2ncn1CC(O)(Cn1cncn1)c1ccc(F)cc1F)CCCCCCCCCC3 (stereo not drawn) [Compound 1-A19, 3-[2-(2,4-Difluorophenyl)-2-hydroxy-3-[1,2,4]-triazol-1-yl-propyl]3,5,6,7,8,9,10,11,12,13,14-undecahydrocyclododeca[4,5]thieno[2,3-d]pyrimidin-4(3H)-one]
